# Results from patent EP3909646A1 (priority 2020, dated 2021).
# Entries after “also recorded” stand apart in the source; their conditions may differ.
# Experiments:
# [1] = system: ACE2; format: cell-based, human
# [2] = system: TMPRSS2; format: cell-based, human; conditions: Fig.4E
# [3] = system: primary NHBE; format: cell-based, human
# [4] = system: SARS-CoV-2; format: cell-based
# [5] = system: primary NHBE; conditions: uninfected primary NHBE, different doses titrated, Fig.1C
# [6] = system: SARS-CoV-2 infected NHBE
Structure (SMILES),"ACE2 gene expression (microarray, confirmed by qPCR) [1]",ACE2 gene expression (qPCR) [1],"TMPRSS2 gene expression (microarray, confirmed by qPCR) ([2]; 10 µM hydrocortisone, uninfected cells)","TMPRSS2 gene expression (qPCR) ([2]; 24h pre-treatment 10 µM hydrocortisone, uninfected and virus-infected NHBE, with or without IFN-γ)",genes that may support the cytokine storm (gene expression) [3],type I interferons IFNB1 and IFNE and type III interferons such as IFNL3 (gene expression) [3],APOBEC3A gene expression ([3]; Fig.4A),known and potential virus entry receptors (gene expression) ([3]; Fig.4C),"genes upregulated by SARS-CoV-2-infection, but downregulated by drug ([3]; Venn diagram, Fig.3E) [genes]","genes reduced by SARS-CoV-2-infection, but increased by drug ([3]; Venn diagram, Fig.7C) [genes]","global gene expression changes ([3]; icatibant 1 µM or hydrocortisone 10 µM, volcano plots, Fig.3D)","antiviral epithelial response (gene expression) ([3]; in general, Fig.4A)","antiviral response genes significantly downregulated ([3]; over all conditions, Fig.8A)","transcripts regulated by both, hydrocortisone and icatibant ([3]; overlap of the two drugs, majority long non-coding RNAs, Fig.3E) [transcripts]",virus titers / infectious viral particles in supernatant (plaque forming units) [4],potential cytotoxicity (LDH) [5],"infection-mediated cytotoxicity (LDH), rescue ([6]; 1 µM icatibant added 6h post-inoculation, Fig.5F)","infection-mediated cytotoxicity (LDH) ([6]; 24h pre-treatment 1 µM icatibant, then 24h SARS-CoV-2 inoculation, n=12, Fig.5E)"
C[C@]12CCC(=O)C=C1CC[C@@H]1[C@@H]2[C@@H](O)C[C@@]2(C)[C@H]1CC[C@]2(O)C(=O)CO [hydrocortisone],upregulation of ACE2 and TMPRSS2 on the transcriptional level of uninfected cells,did not change,upregulation of ACE2 and TMPRSS2 on the transcriptional level of uninfected cells,"still enhanced TMPRSS2 expression in both, uninfected and virus-infected NHBE",not significantly influenced,even slightly enhanced,even increased,"rather enhances receptors, like TMPRSS2, 11B and 11E proteins",300,198,almost balanced relationship between suppression and induction of gene expression,changes of the antiviral epithelial response were not induced,"significantly reduced DNAJC3, CREBZF, GPAM, BNIP3L and FAM111A",86,no adverse effect on the virus titers; also recorded: did not reduce virus titers,,,
NC(N)=NCCC[C@@H](N)C(=O)N[C@@H](CCCN=C(N)N)C(=O)N1CCC[C@H]1C(=O)N1C[C@H](O)C[C@H]1C(=O)NCC(=O)N[C@@H](Cc1cccs1)C(=O)N[C@@H](CO)C(=O)N1Cc2ccccc2C[C@@H]1C(=O)N1[C@H](C(=O)N[C@@H](CCCN=C(N)N)C(=O)O)C[C@@H]2CCCC[C@@H]21 [icatibant],,,,,,,,,,,,,,,,"no toxic effects in NHBE cell cultures, but even exhibits a cell-protecting effect",significantly reduced,significantly reduced
